What was measured:
H1975 = H1975 CellTiter-Glo; format: cell-based; conditions: Homo sapiens, NCI-H1975; 72 h compound incubation; read-out: H1975 CTG IC50
Procedure, shortened: (§1)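 72 h compound exposure after 24 h attachment, 37° C./5% CO2; CellTiter-Glo ATP luminescence read-out; IC50 by dose-response fit; DMSO vehicle and 10 μM Staurosporine as controls; plates accepted only if Z′ ≥0.5.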

EGFR wt = EGFR wt (Homo sapiens, UniProt P00533); test: EGFR wt Lance assay; format: biochemical
Experimental: (§2) Inhibition is indicated as […] [nM] (“−”=not measured). Compounds having an activity designated as “A” provided an IC50≤100 nM; compounds having an activity designated as “B” provided an 100 nM<IC50≤500 nM; compounds having an activity designated as “C” provided an 500 nM<IC50≤1000 nM; compounds having an activity designated as “D” provided an 1000 nM<IC50≤100000 nM; and compounds having an activity designated as “E” provided an IC50>10000 nM.

EGFR T790ML858R = EGFR T790ML858R (Homo sapiens, UniProt P00533, L858R/T790M); test: EGFR T790ML858R Lance assay; format: biochemical
Experimental: as §2

A431 = A431 CellTiter-Glo; format: cell-based; conditions: Homo sapiens, A-431; 72 h compound incubation; read-out: A431 CTG IC50
Procedure, shortened: as §1

HER2 INS YVMA = target: T1, HER2 INS YVMA (Homo sapiens, UniProt P04626, INS775YVMA); test: Lance Kinase Activity Assay, HER2 INS YVMA (Her2 Exon 20 INSYVMA Lance); format: biochemical; conditions: biochemical Lance assay
T1 construct: purchased DPF
T1 sequence (P04626 with tags, fused parts or gaps INS775YVMA): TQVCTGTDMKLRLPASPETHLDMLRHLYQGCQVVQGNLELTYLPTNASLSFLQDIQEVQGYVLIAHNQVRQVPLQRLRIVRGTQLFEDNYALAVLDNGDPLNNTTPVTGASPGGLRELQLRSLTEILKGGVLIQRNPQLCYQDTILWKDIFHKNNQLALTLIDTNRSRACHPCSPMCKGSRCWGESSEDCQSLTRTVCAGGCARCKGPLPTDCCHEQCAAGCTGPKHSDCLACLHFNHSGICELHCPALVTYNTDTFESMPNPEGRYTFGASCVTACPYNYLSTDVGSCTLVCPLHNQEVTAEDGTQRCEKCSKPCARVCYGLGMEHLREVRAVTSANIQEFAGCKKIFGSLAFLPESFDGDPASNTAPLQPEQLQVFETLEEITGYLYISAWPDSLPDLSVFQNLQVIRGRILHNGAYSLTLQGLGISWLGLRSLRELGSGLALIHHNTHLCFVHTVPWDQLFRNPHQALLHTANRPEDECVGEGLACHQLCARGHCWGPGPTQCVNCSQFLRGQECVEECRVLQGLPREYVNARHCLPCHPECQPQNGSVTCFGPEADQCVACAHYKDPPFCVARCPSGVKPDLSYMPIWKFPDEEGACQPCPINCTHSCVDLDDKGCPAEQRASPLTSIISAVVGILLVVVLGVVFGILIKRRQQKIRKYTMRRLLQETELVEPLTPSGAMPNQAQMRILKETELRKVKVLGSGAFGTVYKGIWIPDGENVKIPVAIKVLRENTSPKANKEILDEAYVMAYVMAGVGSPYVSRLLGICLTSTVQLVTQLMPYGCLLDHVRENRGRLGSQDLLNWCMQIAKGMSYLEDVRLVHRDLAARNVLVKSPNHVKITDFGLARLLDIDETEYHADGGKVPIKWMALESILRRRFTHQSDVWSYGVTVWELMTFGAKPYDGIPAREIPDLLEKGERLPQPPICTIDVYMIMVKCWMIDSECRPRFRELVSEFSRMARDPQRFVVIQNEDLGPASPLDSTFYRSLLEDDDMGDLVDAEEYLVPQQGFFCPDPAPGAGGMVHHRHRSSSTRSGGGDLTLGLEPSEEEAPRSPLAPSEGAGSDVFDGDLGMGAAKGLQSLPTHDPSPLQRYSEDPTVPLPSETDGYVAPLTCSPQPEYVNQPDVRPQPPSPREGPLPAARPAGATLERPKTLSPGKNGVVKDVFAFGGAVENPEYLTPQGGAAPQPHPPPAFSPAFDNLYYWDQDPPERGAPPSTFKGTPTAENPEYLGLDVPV
Procedure, shortened: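 IC50 was fitted to sigmoidal curves of TR-FRET signal (665 and 615 nm emission after 340 nm excitation) from an Eu anti-phospho antibody binding the phosphorylated ULight peptide. The ATP-started reaction ran 1 h at RT and was then quenched with 10 mM EDTA plus antibody for a further 1 h. Compounds were tested as 8-point, 3-fold dilutions.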

[1] = target: Her2 Exon 20 INSYVMA Ba/F3 (Homo sapiens, UniProt P04626, DUP772-775, cells depend on it); test: Her2 Exon 20 INSYVMA Ba/F3 CellTiter-Glo; format: cell-based; conditions: CellTiter-Glo, 72 h, read-out: Her2 Exon 20 INSYVMA Ba/F3 CTG IC50
Her2 Exon 20 INSYVMA Ba/F3, sequence (P04626 with tags, fused parts or gaps DUP772-775): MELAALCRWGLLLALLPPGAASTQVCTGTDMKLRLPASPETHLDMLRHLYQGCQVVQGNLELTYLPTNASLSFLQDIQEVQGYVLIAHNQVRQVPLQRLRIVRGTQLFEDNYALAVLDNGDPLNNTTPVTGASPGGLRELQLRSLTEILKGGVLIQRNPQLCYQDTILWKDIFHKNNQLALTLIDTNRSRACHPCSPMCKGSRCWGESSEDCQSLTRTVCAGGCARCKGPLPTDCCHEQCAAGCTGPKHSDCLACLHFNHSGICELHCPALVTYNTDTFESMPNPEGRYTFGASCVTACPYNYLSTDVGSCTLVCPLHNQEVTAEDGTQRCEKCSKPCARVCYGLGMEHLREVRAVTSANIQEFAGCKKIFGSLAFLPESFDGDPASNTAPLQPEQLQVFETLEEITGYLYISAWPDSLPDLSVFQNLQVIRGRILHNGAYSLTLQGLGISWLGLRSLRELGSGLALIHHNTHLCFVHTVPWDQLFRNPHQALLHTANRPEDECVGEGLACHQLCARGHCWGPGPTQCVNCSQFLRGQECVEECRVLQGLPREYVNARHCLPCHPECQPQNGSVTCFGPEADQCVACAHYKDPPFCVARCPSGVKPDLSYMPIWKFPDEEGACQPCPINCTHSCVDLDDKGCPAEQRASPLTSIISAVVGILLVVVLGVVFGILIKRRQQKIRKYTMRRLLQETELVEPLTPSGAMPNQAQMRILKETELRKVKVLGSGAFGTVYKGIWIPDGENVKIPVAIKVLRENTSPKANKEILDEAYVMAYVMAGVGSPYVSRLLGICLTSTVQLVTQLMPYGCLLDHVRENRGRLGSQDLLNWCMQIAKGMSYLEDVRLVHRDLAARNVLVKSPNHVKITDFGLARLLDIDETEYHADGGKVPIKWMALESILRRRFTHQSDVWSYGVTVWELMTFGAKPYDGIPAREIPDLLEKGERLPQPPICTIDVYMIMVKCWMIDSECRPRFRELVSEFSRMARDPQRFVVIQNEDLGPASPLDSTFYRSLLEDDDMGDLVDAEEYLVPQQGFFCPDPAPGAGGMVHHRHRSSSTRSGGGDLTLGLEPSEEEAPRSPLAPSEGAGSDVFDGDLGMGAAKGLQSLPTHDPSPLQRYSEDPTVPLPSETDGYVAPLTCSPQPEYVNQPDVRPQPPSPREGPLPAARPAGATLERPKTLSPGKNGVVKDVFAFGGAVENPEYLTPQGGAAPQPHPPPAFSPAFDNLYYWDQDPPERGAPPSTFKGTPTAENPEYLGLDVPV
Procedure, shortened: (§3)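 ATP-based luminescence (CellTiter-Glo) after 72 h compound exposure gives viability; IC50 from dose-response fit. Cells seeded 24 h ahead at 37 °C, 5% CO2. Controls: DMSO vehicle and 10 μM staurosporine; runs kept only if Z′ ≥0.5.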

[2] = target: EGFR Exon 20 INSNPH Ba/F3 (Homo sapiens, UniProt P00533, DUP771-773, cells depend on it); test: EGFR Exon 20 INSNPH Ba/F3 CellTiter-Glo; format: cell-based; conditions: CellTiter-Glo, 72 h, read-out: EGFR Exon 20 INSNPH Ba/F3 CTG IC50
EGFR Exon 20 INSNPH Ba/F3, sequence (P00533 with tags, fused parts or gaps DUP771-773): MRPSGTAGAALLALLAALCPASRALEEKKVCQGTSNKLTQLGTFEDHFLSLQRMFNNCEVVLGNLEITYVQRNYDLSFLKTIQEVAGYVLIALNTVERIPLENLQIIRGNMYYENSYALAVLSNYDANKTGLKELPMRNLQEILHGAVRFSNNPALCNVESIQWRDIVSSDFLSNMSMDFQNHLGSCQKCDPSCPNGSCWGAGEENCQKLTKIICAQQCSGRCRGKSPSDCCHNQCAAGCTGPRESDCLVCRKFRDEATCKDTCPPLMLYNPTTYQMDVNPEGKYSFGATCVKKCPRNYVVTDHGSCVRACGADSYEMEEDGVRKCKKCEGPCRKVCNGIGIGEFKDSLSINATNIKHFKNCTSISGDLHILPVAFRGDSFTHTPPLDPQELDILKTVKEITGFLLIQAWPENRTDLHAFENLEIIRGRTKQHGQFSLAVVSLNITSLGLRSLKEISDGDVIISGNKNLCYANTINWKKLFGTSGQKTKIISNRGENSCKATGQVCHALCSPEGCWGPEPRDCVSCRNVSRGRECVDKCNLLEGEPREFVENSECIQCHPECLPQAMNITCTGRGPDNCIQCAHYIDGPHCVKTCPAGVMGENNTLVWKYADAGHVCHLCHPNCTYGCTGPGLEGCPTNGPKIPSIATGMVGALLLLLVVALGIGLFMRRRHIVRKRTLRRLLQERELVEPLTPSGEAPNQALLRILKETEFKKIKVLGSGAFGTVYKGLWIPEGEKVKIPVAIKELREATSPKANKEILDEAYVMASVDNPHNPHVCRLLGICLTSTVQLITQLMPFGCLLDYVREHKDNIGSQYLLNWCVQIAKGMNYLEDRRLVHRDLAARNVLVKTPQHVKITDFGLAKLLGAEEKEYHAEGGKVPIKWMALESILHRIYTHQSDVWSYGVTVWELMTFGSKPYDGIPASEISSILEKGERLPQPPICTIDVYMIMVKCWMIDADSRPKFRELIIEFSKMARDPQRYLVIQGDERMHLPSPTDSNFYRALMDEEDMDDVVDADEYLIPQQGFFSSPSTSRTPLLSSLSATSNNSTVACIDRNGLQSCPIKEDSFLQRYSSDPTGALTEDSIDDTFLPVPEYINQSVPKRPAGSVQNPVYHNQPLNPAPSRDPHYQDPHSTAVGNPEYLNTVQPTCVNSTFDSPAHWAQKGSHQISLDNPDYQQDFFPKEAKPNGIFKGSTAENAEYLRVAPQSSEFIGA
Procedure, shortened: as §3

EGFR wt, sequence (P00533 25-1210): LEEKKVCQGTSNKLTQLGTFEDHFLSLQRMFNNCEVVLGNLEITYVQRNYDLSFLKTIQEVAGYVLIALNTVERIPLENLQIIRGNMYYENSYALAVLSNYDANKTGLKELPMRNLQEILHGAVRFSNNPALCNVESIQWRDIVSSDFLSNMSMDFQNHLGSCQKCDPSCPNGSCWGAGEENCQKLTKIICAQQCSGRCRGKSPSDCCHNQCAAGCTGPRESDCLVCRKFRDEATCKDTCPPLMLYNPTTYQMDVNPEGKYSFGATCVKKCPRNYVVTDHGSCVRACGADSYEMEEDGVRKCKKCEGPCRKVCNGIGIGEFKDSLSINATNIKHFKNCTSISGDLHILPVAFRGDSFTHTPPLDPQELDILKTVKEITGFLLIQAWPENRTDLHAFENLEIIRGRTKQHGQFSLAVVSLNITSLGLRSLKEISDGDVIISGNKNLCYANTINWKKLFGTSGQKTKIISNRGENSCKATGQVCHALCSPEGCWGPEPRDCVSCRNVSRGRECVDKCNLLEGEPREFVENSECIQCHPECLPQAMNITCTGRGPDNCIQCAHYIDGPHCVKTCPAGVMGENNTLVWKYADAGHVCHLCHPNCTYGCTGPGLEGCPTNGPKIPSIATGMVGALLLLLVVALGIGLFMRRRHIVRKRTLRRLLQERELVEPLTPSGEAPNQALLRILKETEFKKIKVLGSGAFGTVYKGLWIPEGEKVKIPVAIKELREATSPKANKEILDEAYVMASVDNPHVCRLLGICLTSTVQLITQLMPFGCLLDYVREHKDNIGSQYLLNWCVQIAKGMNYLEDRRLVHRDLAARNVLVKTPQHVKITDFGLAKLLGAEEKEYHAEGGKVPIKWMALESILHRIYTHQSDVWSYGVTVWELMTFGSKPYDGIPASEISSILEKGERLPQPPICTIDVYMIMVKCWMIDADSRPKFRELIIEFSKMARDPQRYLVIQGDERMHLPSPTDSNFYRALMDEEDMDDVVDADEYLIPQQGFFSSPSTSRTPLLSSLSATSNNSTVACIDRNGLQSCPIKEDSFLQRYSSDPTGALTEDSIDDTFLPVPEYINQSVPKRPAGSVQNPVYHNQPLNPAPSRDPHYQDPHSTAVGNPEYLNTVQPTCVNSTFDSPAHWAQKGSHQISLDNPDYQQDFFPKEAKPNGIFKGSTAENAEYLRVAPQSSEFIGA

IC50 (H1975) [µM]	IC50 (EGFR wt) [µM]	IC50 (EGFR T790ML858R) [µM]	IC50 (A431) [µM]	IC50 (HER2 INS YVMA) [µM]	GI50 [1] [µM]	GI50 [2] [µM]	Structure (SMILES)
0.1 to 0.5	≤ 0.1	≤ 0.1	0.5 to 1	≤ 0.1	0.1 to 0.5	0.1 to 0.5	C=CC(=O)N1CCCc2ccc(-c3c(-c4ccc(CN5CCN(C)CC5)nc4)[nH]c4nccc(Cl)c34)cc21 [Example 89, 1-(7-(4-chloro-2-(6-((4-methylpiperazin-1-yl)methyl)pyridin-3-yl)-1H-pyrrolo[2,3-b]pyridin-3-yl)-3,4-dihydroquinolin-1(2H)-yl)prop-2-en-1-one]
0.1 to 0.5	≤ 0.1	≤ 0.1	1 to 100	≤ 0.1	0.5 to 1	0.5 to 1	C=CS(=O)(=O)Nc1cc(-c2c(-c3ccc(N4CCN(C)CC4)cc3)[nH]c3nccc(Cl)c23)ccc1C [Example 145, N-(5-(4-chloro-2-(4-(4-methylpiperazin-1-yl)phenyl)-1H-pyrrolo[2,3-b]pyridin-3-yl)-2-methylphenyl)ethenesulfonamide 2,2,2-trifluoroacetate]
≤ 0.1	≤ 0.1	≤ 0.1	0.5 to 1	≤ 0.1	1 to 10	1 to 10	C=CC(=O)Nc1cc(-c2c(-c3cccc(C(=O)NCCCN4CCCC4)c3)[nH]c3nccc(Cl)c23)ccc1C [Example 47, 3-(3-(3-acrylamido-4-methylphenyl)-4-chloro-1H-pyrrolo[2,3-b]pyridin-2-yl)-N-(3-(pyrrolidin-1-yl)propyl)benzamide]
> 10	≤ 0.1	≤ 0.1	1 to 100	0.5 to 1	1 to 10	1 to 10	C=CC(=O)Nc1cc(-c2c(-c3ccc(N4CCN(C)CC4)cc3)[nH]c3ncc(C(=O)NCCc4ccncc4)cc23)ccc1C [Example 123, 3-(3-acrylamido-4-methylphenyl)-2-(4-(4-methylpiperazin-1-yl)phenyl)-N-(2-(pyridin-4-yl)ethyl)-1H-pyrrolo[2,3-b]pyridine-5-carboxamide]
1 to 100	≤ 0.1	0.1 to 0.5	1 to 100	0.1 to 0.5	1 to 10	1 to 10	C=CC(=O)Nc1cc(-c2c(-c3cnc(N4CCN(C)CC4)nc3)[nH]c3ncc(C(=O)OC(C)C)cc23)ccc1C [Example 175, isopropyl 3-(3-acrylamido-4-methylphenyl)-2-(2-(4-methylpiperazin-1-yl)pyrimidin-5-yl)-1H-pyrrolo[2,3-b]pyridine-5-carboxylate]
≤ 0.1	≤ 0.1	≤ 0.1	0.5 to 1	≤ 0.1	0.1 to 0.5	0.1 to 0.5	C=CC(=O)N1CCc2ccc(-c3c(-c4ccc(OCCN5CCCC5)cc4)[nH]c4nccc(OCC)c34)cc21 [Example 107, 1-(6-(4-ethoxy-2-(4-(2-(pyrrolidin-1-yl)ethoxy)phenyl)-1H-pyrrolo[2,3-b]pyridin-3-yl)indolin-1-yl)prop-2-en-1-one]
0.1 to 0.5	≤ 0.1	≤ 0.1	1 to 100	≤ 0.1	0.1 to 0.5	0.1 to 0.5	C=CC(=O)N1CCOc2ccc(-c3c(-c4ccc(CN(C)C)cc4)[nH]c4nccc(Cl)c34)cc21 [Example 102, 1-(6-(4-chloro-2-(4-((dimethylamino)methyl)phenyl)-1H-pyrrolo[2,3-b]pyridin-3-yl)-2H-benzo[b][1,4]oxazin-4(3H)-yl)prop-2-en-1-one]
1 to 100	≤ 0.1	≤ 0.1	1 to 100	≤ 0.1	1 to 10	1 to 10	C=CC(=O)Nc1cc(-c2c(-c3ccc(N4CCN(C)CC4)cc3)[nH]c3ncc(CC(=O)N(C)C)cc23)ccc1C [Example 194, N-(5-(5-(2-(dimethylamino)-2-oxoethyl)-2-(4-(4-methylpiperazin-1-yl)phenyl)-1H-pyrrolo[2,3-b]pyridin-3-yl)-2-methylphenyl)acrylamide 2,2,2-trifluoroacetate]
> 10	≤ 0.1	0.1 to 0.5	> 10	0.5 to 1	> 10	> 10	C=CC(=O)Nc1cc(-c2c(-c3ccc(N4CCN(C)CC4)cc3)[nH]c3ncc(C(=O)NCc4ccc(NC(C)=O)cc4)cc23)ccc1C [Example 132, N-(4-acetamidobenzyl)-3-(3-acrylamido-4-methylphenyl)-2-(4-(4-methylpiperazin-1-yl)phenyl)-1H-pyrrolo[2,3-b]pyridine-5-carboxamide]
> 10	≤ 0.1	0.1 to 0.5	> 10	≤ 0.1	> 10	> 10	C=CC(=O)Nc1cc(-c2c(-c3ccc(N4CCN(C)CC4)cc3)[nH]c3ncc(C(=O)NCc4cccc(NC(C)=O)c4)cc23)ccc1C [Example 121, N-(3-acetamidobenzyl)-3-(3-acrylamido-4-methylphenyl)-2-(4-(4-methylpiperazin-1-yl)phenyl)-1H-pyrrolo[2,3-b]pyridine-5-carboxamide]
1 to 100	≤ 0.1	0.5 to 1	1 to 100	0.1 to 0.5	0.5 to 1	1 to 10	C=CC(=O)Nc1cc(-c2c(-c3ccc(N4CCN(C)CC4)cc3)[nH]c3ncc(C(=O)NCc4ccc(F)cc4F)cc23)ccc1C [Example 131, 3-(3-acrylamido-4-methylphenyl)-N-(2,4-difluorobenzyl)-2-(4-(4-methylpiperazin-1-yl)phenyl)-1H-pyrrolo[2,3-b]pyridine-5-carboxamide]
0.5 to 1	≤ 0.1	≤ 0.1	1 to 100	0.1 to 0.5	0.5 to 1	0.5 to 1	C=CC(=O)Nc1cc(-c2c(-c3ccc(S(=O)(=O)N4CCN(C)CC4)cc3)[nH]c3ncc(C(=O)OC(C)C)cc23)ccc1C [Example 167, isopropyl 3-(3-acrylamido-4-methylphenyl)-2-(4-((4-methylpiperazin-1-yl)sulfonyl)phenyl)-1H-pyrrolo[2,3-b]pyridine-5-carboxylate]
> 10	0.1 to 0.5	0.1 to 0.5	> 10	0.5 to 1	> 10	> 10	C=CC(=O)Nc1cc(-c2c(-c3ccc(N4CCN(C)CC4)cc3)[nH]c3ncc(C(=O)NCC4CCN(C)CC4)cc23)ccc1C [Example 129, 3-(3-acrylamido-4-methylphenyl)-2-(4-(4-methylpiperazin-1-yl)phenyl)-N-((1-methylpiperidin-4-yl)methyl)-1H-pyrrolo[2,3-b]pyridine-5-carboxamide]
1 to 100	≤ 0.1	≤ 0.1	1 to 100	≤ 0.1	1 to 10	0.5 to 1	C=CC(=O)Nc1cc(-c2c(-c3ccc(N4CCN(C(C)=O)CC4)cc3)[nH]c3ncc(C(=O)OC(C)C)cc23)ccc1C [Example 162, isopropyl 2-(4-(4-acetylpiperazin-1-yl)phenyl)-3-(3-acrylamido-4-methylphenyl)-1H-pyrrolo[2,3-b]pyridine-5-carboxylate]
0.5 to 1	≤ 0.1	≤ 0.1	0.5 to 1	≤ 0.1	0.1 to 0.5	0.1 to 0.5	C=CC(=O)Nc1cc(-c2c(-c3ccc(N4CCN(C)CC4)cc3)[nH]c3ncc(C(=O)NCc4ccccc4)cc23)ccc1C [Example 118, 3-(3-acrylamido-4-methylphenyl)-N-benzyl-2-(4-(4-methylpiperazin-1-yl)phenyl)-1H-pyrrolo[2,3-b]pyridine-5-carboxamide 2,2,2-trifluoroacetate]
1 to 100	≤ 0.1	0.1 to 0.5	1 to 100	0.1 to 0.5	0.5 to 1	0.5 to 1	C=CC(=O)Nc1cc(-c2c(-c3ccc(CCO)cc3)[nH]c3ncc(C(=O)OC(C)C)cc23)ccc1C [Example 168, isopropyl 3-(3-acrylamido-4-methylphenyl)-2-(4-(2-hydroxyethyl)phenyl)-1H-pyrrolo[2,3-b]pyridine-5-carboxylate]
